{"source": "patent US10654816B2", "about": "“Compounds and compositions for treating conditions associated with NLRP activity” (NOVARTIS INFLAMMASOME RESEARCH, INC., priority 2017, dated 2020)", "data": [{"tested_on": "IL-1β production in PMA-differentiated THP-1 cells", "test": "IL-1β production in PMA-differentiated THP-1 cells stimulated with gramicidin (hTHP-1 assay, HTRF readout; Procedures 1-3)", "format": "cell-based, human", "settings": "Homo sapiens, THP-1, hTHP-1 assay containing 2% fetal bovine serum; average; class symbols; read-out: hTHP-1 IC50 (Average IC50 of compounds in hTHP-1 assay)", "summary_of_the_method": "(§1)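 PMA-differentiated (20 ng/ml, 16-18 h) THP-1 cells in RPMI with 2% FBS, 50,000 cells/well, preincubated 1 h with compound (final 0.0017-100 μM, 0.37% DMSO), then stimulated with 5 μM gramicidin for 2 h. IL-1β in cell-free supernatant measured by HTRF (620/668 nm).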", "units": {"IC50": "nM"}, "values": [{"smiles": "CC(C)(O)c1ccc(S(N)(=O)=NC(=O)Nc2c3c(c(F)c4c2CCC4)CCC3)c(F)c1", "note": "(stereo not shown) [Example 47, 2-fluoro-N′-(8-fluoro-1,2,3,5,6,7-hexahydro-s-indacen-4-ylcarbamoyl)-4-(2-hydroxypropan-2-yl)benzenesulfonimidamide]", "IC50": "200 to 1000"}, {"smiles": "CN(C)Cc1cccc(S(N)(=O)=NC(=O)Nc2c3c(cc4c2CCC4)CCC3)c1", "note": "(stereo not shown) [Example 51, 3-((dimethylamino)methyl)-N′-(1,2,3,5,6,7-hexahydro-s-indacen-4-ylcarbamoyl)benzene-sulfonimidamide]", "IC50": "1000 to 5000"}, {"smiles": "CC(C)c1cc(OC(F)F)cc(C2CC2)c1NC(=O)N=S(N)(=O)c1ccc(C(C)(C)O)cc1F", "note": "(stereo not shown) [Example 54]", "IC50": "1000 to 5000"}, {"smiles": "CC(C)(O)c1ccc(F)c(S(N)(=O)=NC(=O)Nc2c3c(c(F)c4c2CCC4)CCC3)c1", "note": "(stereo not shown) [Example 55, 2-fluoro-N′-((8-fluoro-1,2,3,5,6,7-hexahydro-s-indacen-4-yl)carbamoyl)-5-(2-hydroxypropan-2-yl)benzenesulfonimidamide]", "IC50": "200 to 1000"}, {"smiles": "CC(C)c1cc(F)cc(C(C)C)c1NC(=O)N=S(N)(=O)c1cccc(S(C)(=O)=O)c1", "note": "(stereo not shown) [Example 63, N′-((4-fluoro-2,6-diisopropylphenyl)carbaoyl)-3-(methylsulfonyl)benzenesulfonim idamide]", "IC50": "1000 to 5000"}, {"smiles": "CC(C)(O)c1cnc(S(N)(=O)=NC(=O)Nc2c3c(cc4c2CCC4)CCC3)s1", "note": "(stereo not shown) [Example 64, N′-((1,2,3,5,6,7-hexahydro-s-indacen-4-yl)carbamoyl)-5-(2-hydroxypropan-2-yl)thiazole-2-sulfonimidamide]", "IC50": "[…]"}, {"smiles": "CC(C)c1cc(C#N)cc(C(C)C)c1NC(=O)N=S(N)(=O)c1sc(C(C)(C)O)cc1F", "note": "(stereo not shown) [Example 65, N′-((4-cyano-2,6-diisopropylphenyl)carbaoyl)-3-fluoro-5-(2-hydroxypropan-2-yl)thiophene-2-sulfonimidamide]", "IC50": "40 to 200"}, {"smiles": "CC(C)c1cc(C#N)cc(C(C)C)c1NC(=O)N=S(N)(=O)c1cc(C(C)(C)O)cc(C(C)(C)O)c1", "note": "(stereo not shown) [Example 66, N′-((4-cyano-2,6-diisopropylphenyl)carbaoyl)-3,5-bis(2-hydroxypropan-2-yl)benzenesulfonimidamide]", "IC50": "5000 to 30000"}, {"smiles": "CC(C)c1cc(C#N)cc(C(C)C)c1NC(=O)N=S(N)(=O)c1ccc(C(C)(C)O)c(CO)c1", "note": "(stereo not shown) [Example 68, N′-((4-cyano-2,6-diisopropylphenyl)carbaoyl)-3-(hydroxymethyl)-4-(2-hydroxypropan-2-yl)benzenesulfonimidamide]", "IC50": "1000 to 5000"}, {"smiles": "CC(C)(O)c1nc(CO)c(S(N)(=O)=NC(=O)Nc2c3c(c(C#N)c4c2CCC4)CCC3)s1", "note": "(stereo not shown) [Example 69, N′-((8-cyano-1,2,3,5,6,7-hexahydro-s-indacen-4-yl)carbamoyl)-4-(hydroxymethyl)-2-(2-hydroxypropan-2-yl)thiazole-5-sulfonimidamide]", "IC50": "1000 to 5000"}, {"smiles": "CC(C)c1cc(C#N)cc(C(C)C)c1NC(=O)NS(=N)(=O)c1sc(C(C)(C)O)nc1CO", "note": "(stereo not shown) [Example 70, N-((4-cyano-2,6-diisopropylphenyl)carbaoyl)-4-(hydroxymethyl)-2-(2-hydroxypropan-2-yl)thiazole-5-sulfonimidamide]", "IC50": "1000 to 5000"}, {"smiles": "CC(C)c1cc(C#N)cc(C(C)C)c1NC(=O)N=S(N)(=O)c1ccc(S(C)(=O)=O)cc1", "note": "(stereo not shown) [Example 73, N′-((4-cyano-2,6-diisopropylphenyl)carbaoyl)-4-(methylsulfonyl)benzenesulfonim idamide]", "IC50": "1000 to 5000"}, {"smiles": "CC(C)(O)c1csc(S(N)(=O)=NC(=O)Nc2c3c(cc4c2CCC4)CCC3)c1", "note": "(stereo not shown) [Example 74, N′-(1,2,3,5,6,7-hexahydro-s-indacen-4-ylcarbamoyl)-4-(2-hydroxypropan-2-yl)thiophene-2-sulfonimidamide]", "IC50": "[…]"}, {"smiles": "CC(C)(O)c1coc(S(N)(=O)=NC(=O)Nc2c3c(cc4c2CCC4)CCC3)c1", "note": "(stereo not shown) [Example 76, N′-(1,2,3,5,6,7-hexahydro-s-indacen-4-ylcarbamoyl)-4-(2-hydroxypropan-2-yl)furan-2-sulfonimidamide]", "IC50": "[…]"}, {"smiles": "CC(C)(O)c1csc(S(N)(=O)=NC(=O)Nc2c3c(cc4c2CCC4)CCC3)n1", "note": "(stereo not shown) [Example 77, N′-(1,2,3,5,6,7-hexahydro-s-indacen-4-ylcarbamoyl)-4-(2-hydroxypropan-2-yl)thiazole-2-sulfonimidamide]", "IC50": "[…]"}, {"smiles": "CC(C)c1cc(F)cc(C(C)C)c1NC(=O)N=S(N)(=O)c1cc(Cl)c(Cl)s1", "note": "(stereo not shown) [Example 208, 4,5-Dichloro-N′-((4-fluoro-2,6-diisopropylphenyl)carbamoyl)thiophene-2-sulfonimidamide]", "IC50": "5000 to 30000"}, {"smiles": "CC(C)c1cc(F)cc(C(C)C)c1NC(=O)N=S(N)(=O)c1ccc2c(c1)CCO2", "note": "(stereo not shown) [Example 211, N′-((4-fluoro-2,6-diisopropylphenyl)carbamoyl)-2,3-dihydrobenzofuran-5-sulfonimidamide]", "IC50": "5000 to 30000"}, {"smiles": "CC(C)c1cc(F)cc(C(C)C)c1NC(=O)N=S(N)(=O)c1cccnc1", "note": "(stereo not shown) [Example 215, N′-((4-fluoro-2,6-diisopropylphenyl)carbamoyl)pyridine-3-sulfonimidamide]", "IC50": "5000 to 30000"}, {"smiles": "Cc1cc(S(N)(=O)=NC(=O)Nc2c(C(C)C)cc(F)cc2C(C)C)c(C)o1", "note": "(stereo not shown) [Example 217, N′-((4-fluoro-2,6-diisopropylphenyl)carbamoyl)-2,5-dimethylfuran-3-sulfonimidamide]", "IC50": "5000 to 30000"}, {"smiles": "CC(C)c1cc(F)cc(C(C)C)c1NC(=O)N=S(N)(=O)c1cnc2ccccc2c1", "note": "(stereo not shown) [Example 218, N′-((4-fluoro-2,6-diisopropyl-phenyl)carbamoyl)quinoline-3-sulfonimidamide]", "IC50": "1000 to 5000"}, {"smiles": "Cc1ccc(S(N)(=O)=NC(=O)Nc2c(C(C)C)cc(F)cc2C(C)C)nc1", "note": "(stereo not shown) [Example 220, N′-((4-fluoro-2,6-diisopropylphenyl)carbamoyl)-5-methylpyridine-2-sulfonimidamide]", "IC50": "5000 to 30000"}, {"smiles": "Cc1oc(S(N)(=O)=NC(=O)Nc2c3c(nc4c2CCC4)CCC3)cc1C(C)(C)O", "note": "(stereo not shown) [Example 221, N′-((1,2,3,5,6,7-hexahydrodicyclopenta[b,e]pyridin-8-yl)carbamoyl)-4-(2-hydroxypropan-2-yl)-5-methylfuran-2-sulfonimidamide]", "IC50": "40 to 200"}, {"smiles": "Cc1oc(S(N)(=O)=NC(=O)Nc2c(C(C)C)cncc2C(C)C)cc1C(C)(C)O", "note": "(stereo not shown) [Example 222, N′-((3,5-diisopropylpyridin-4-yl)carbamoyl)-4-(2-hydroxypropan-2-yl)-5-methylfuran-2-sulfonimidamide]", "IC50": "200 to 1000"}, {"smiles": "CC(C)(O)c1ncc(S(N)(=O)=NC(=O)Nc2c3c(cc4c2CC4)CC3)s1", "note": "(stereo not shown) [Example 226, 2-(2-Hydroxypropan-2-yl)-N′-(tricyclo[6.2.0.03,6]deca-1,3(6),7-trien-2-ylcarbamoyl)thiazole-5-sulfonimidamide]", "IC50": "8 to 40"}, {"smiles": "NS(=O)(=NC(=O)Nc1c2c(c(F)c3c1CCC3)CCC2)c1ccc(O)cc1F", "note": "(stereo not shown) [Example 229, 2-Fluoro-N′-(8-fluoro-1,2,3,5,6,7-hexahydro-s-indacen-4-ylcarbamoyl)-4-hydroxybenzenesulfonimidamide]", "IC50": "1000 to 5000"}, {"smiles": "CC(C)(O)c1ncc(S(N)(=O)=NC(=O)Nc2c3c(cc4c2CCC4O)CCC3)s1", "note": "(stereo not shown) [Example 230]", "IC50": "1000 to 5000"}, {"smiles": "COC1CN(Cc2ccc(S(N)(=O)=NC(=O)Nc3c4c(cc5c3CCC5)CCC4)cc2)C1", "note": "(stereo not shown) [Example 231]", "IC50": "1000 to 5000"}, {"smiles": "COCCN(C)Cc1ccc(S(N)(=O)=NC(=O)Nc2c3c(cc4c2CCC4)CCC3)cc1", "note": "(stereo not shown) [Example 232, N′-(1,2,3,5,6,7-hexahydro-s-indacen-4-ylcarbamoyl)-4-(((2-methoxyethyl)(methyl)amino)meth-yl)benzenesulfonimidamide]", "IC50": "1000 to 5000"}, {"smiles": "NS(=O)(=NC(=O)Nc1c2c(cc3c1CCC3)CCC2)c1ccc(CO)cc1", "note": "(stereo not shown) [Example 233, 1-[amino[4-(hydroxymethyl)phenyl]oxo-λ^6-sulfanylidene]-3-(1,2,3,5,6,7-hexahydro-s-indacen-4-yl)urea]", "IC50": "1000 to 5000"}, {"smiles": "NS(=O)(=NC(=O)Nc1c2c(cc3c1CCC3)CCC2)c1ccc(CN2CCOCC2)cc1", "note": "(stereo not shown) [Example 234, N′-(1,2,3,5,6,7-hexahydro-s-indacen-4-ylcarbamoyl)-4-(morpholino-methyl)benzenesulfonimidamide]", "IC50": "1000 to 5000"}]}, {"tested_on": "IL-1β production in PMA-differentiated THP-1 cells", "test": "IL-1β production in PMA-differentiated THP-1 cells stimulated with gramicidin (hTHP-1 assay, HTRF readout; Procedures 1-3)", "format": "cell-based, human", "settings": "Homo sapiens, THP-1, hTHP-1 assay containing 2% fetal bovine serum; average; given as bound; read-out: hTHP-1 IC50 (Average IC50 of compounds in hTHP-1 assay)", "summary_of_the_method": "as §1", "units": {"IC50": "nM"}, "values": [{"smiles": "Cc1nn(C)cc1S(N)(=O)=NC(=O)Nc1c(C(C)C)cc(F)cc1C(C)C", "note": "(stereo not shown) [Example 209, N′-((4-fluoro-2,6-diisopropylphenyl)carbamoyl)-1,3-dimethyl-1H-pyrazole-4-sulfonimidamide]", "IC50": "> 30000"}, {"smiles": "CC(C)c1cc(F)cc(C(C)C)c1NC(=O)N=S(N)(=O)c1ccc2ccccc2c1", "note": "(stereo not shown) [Example 210, N′-((4-fluoro-2,6-diisopropylphenyl)carbamoyl)naphthalene-2-sulfonimidamide]", "IC50": "> 30000"}, {"smiles": "CC(C)c1cc(F)cc(C(C)C)c1NC(=O)N=S(N)(=O)c1ccccc1-c1ccccc1", "note": "(stereo not shown) [Example 212, N′-((4-fluoro-2,6-diisopropylphenyl)carbamoyl)-[1,1′-biphenyl]-2-sulfonimidamide]", "IC50": "> 30000"}, {"smiles": "COCc1ccccc1S(N)(=O)=NC(=O)Nc1c(C(C)C)cc(F)cc1C(C)C", "note": "(stereo not shown) [Example 213, N′-((4-fluoro-2,6-diisopropylphenyl)carbamoyl)-2-(methoxymethyl)benzene-sulfonimidamide]", "IC50": "> 30000"}, {"smiles": "CC(C)c1cc(F)cc(C(C)C)c1NC(=O)N=S(N)(=O)c1cc(Cl)sc1Cl", "note": "(stereo not shown) [Example 214, 2,5-dichloro-N′-((4-fluoro-2,6-diisopropylphenyl)carbamoyl)thio-phene-3-sulfonimidamide]", "IC50": "> 30000"}, {"smiles": "CC(C)c1cc(F)cc(C(C)C)c1NC(=O)N=S(N)(=O)c1ccc2c(c1)OCO2", "note": "(stereo not shown) [Example 216, N′-((4-fluoro-2,6-diisopropyl-phenyl)carbamoyl)benzo[d][1,3]dioxole-5-sulfonimidamide]", "IC50": "> 30000"}, {"smiles": "CC(C)c1cc(F)cc(C(C)C)c1NC(=O)N=S(N)(=O)c1cnc2n1CCC2", "note": "(stereo not shown) [Example 219, N′-((4-fluoro-2,6-diisopropylphenyl)carbamoyl)-6,7-dihydro-5H-pyrrolo[1,2-a]imidazole-3-sulfonimidamide]", "IC50": "> 30000"}]}]}
